According to US10294202B2, “Pyrrolidinones as herbicides” (FMC Corporation, priority 2013, dated 2019):

Tests used:
ducksalad = assay: Test B flooded paddy test; format: in vivo, Heteranthera limosa; conditions: 500 g ai/ha, Flood; scale of 0 to 100 where 0 is no effect and 100 is complete control
Method in brief: (§1)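 Scored visually 0–100 (0 no effect, 100 complete control) versus controls after 13 to 15 greenhouse days. Treatment: compound added to paddy water kept 3 cm above soil, on 2-leaf-stage plants.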

corn = assay: Test A pre-/postemergence herbicide test; format: in vivo, Zea mays; conditions: Postemergence; for Plant response rating, Corn: 125 g ai/ha, 0 to 100 scale, 0 is no effect, 100 is complete control; for Corn plant response rating (0 to 100 scale, 0 is no effect, 100 is complete control): 500 g ai/ha
Method in brief: (§2)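 Formulated compound (non-phytotoxic solvent, surfactant) sprayed pre- onto soil of seeded loam/sand pots or post- onto seedlings at 1–2 leaves; ~10 d greenhouse; 0–100 visual control rating versus untreated.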

galium = assay: Test A postemergence herbicide test; format: in vivo, Galium aparine; conditions: for Plant response rating, Galium: 125 g ai/ha, 0 to 100 scale, 0 is no effect, 100 is complete control; for Galium plant response rating (0 to 100 scale, 0 is no effect, 100 is complete control): 500 g ai/ha
Method in brief: (§3)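 Blackgrass and galium grown in pots of loam soil–sand blend, treated postemergence at 2–10 cm height, one- to two-leaf stage. Plants kept in greenhouse ~10 days, then visually rated for injury against untreated controls on a 0–100 scale (0 no effect, 100 complete control).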

kochia = assay: Test A pre-/postemergence herbicide test; format: in vivo, Kochia scoparia; conditions: for Plant response rating, Kochia: 0 to 100 scale
Method in brief: as §2

blackgrass = assay: Test A postemergence herbicide test; format: in vivo, Alopecurus myosuroides; conditions: for Plant response rating, Blackgrass: 125 g ai/ha, 0 to 100 scale, 0 is no effect, 100 is complete control; for Blackgrass plant response rating (0 to 100 scale, 0 is no effect, 100 is complete control): 500 g ai/ha
Method in brief: as §3

barnyardgrass [1] = assay: Test B flooded paddy test; format: in vivo, Echinochloa crus-galli; conditions: 500 g ai/ha, Flood; scale of 0 to 100 where 0 is no effect and 100 is complete control
Method in brief: as §1

barnyardgrass [2] = assay: Test A pre-/postemergence herbicide test; format: in vivo, Echinochloa crus-galli
Method in brief: as §2

rice = assay: Test B flooded paddy test; format: in vivo, Oryza sativa; conditions: 500 g ai/ha, Flood; scale of 0 to 100 where 0 is no effect and 100 is complete control
Method in brief: as §1

pigweed = assay: Test A pre-/postemergence herbicide test; format: in vivo, Amaranthus retroflexus; conditions: for Plant response rating, Pigweed: 0 to 100 scale
Method in brief: as §2

wheat = assay: Test A pre-/postemergence herbicide test; format: in vivo, Triticum aestivum; conditions: Postemergence; for Plant response rating, Wheat: 125 g ai/ha, 0 to 100 scale, 0 is no effect, 100 is complete control; for Wheat plant response rating (0 to 100 scale, 0 is no effect, 100 is complete control): 500 g ai/ha
Method in brief: as §2

giant foxtail = assay: Test A pre-/postemergence herbicide test; format: in vivo, Setaria faberii; conditions: for Plant response rating, Foxtail, Giant: 0 to 100 scale
Method in brief: as §2

sedge, umbrella = assay: Test B flooded paddy test; format: in vivo, Cyperus difformis; conditions: 500 g ai/ha, Flood; scale of 0 to 100 where 0 is no effect and 100 is complete control
Method in brief: as §1

ryegrass, Italian = assay: Test A pre-/postemergence herbicide test; format: in vivo, Lolium multiflorum; conditions: for Plant response rating, Ryegrass, Italian: 0 to 100 scale
Method in brief: as §2

ragweed = assay: Test A pre-/postemergence herbicide test; format: in vivo, Ambrosia elatior; conditions: for Plant response rating, Ragweed: 0 to 100 scale
Method in brief: as §2

[3] = 125 g ai/ha, visual rating, 0 no effect, 100 complete control, approximately 10 days, preemergence
[4] = Postemergence, 125 g ai/ha, 0 is no effect, 100 is complete control
[5] = preemergence, 500 g ai/ha, 0 is no effect and 100 is complete control
[6] = 125 g ai/ha, visual rating, 0 to 100 scale, 0 no effect, 100 complete control, approximately 10 days, preemergence
[7] = Postemergence, 125 g ai/ha, 0 to 100 scale, 0 is no effect, 100 is complete control
[8] = preemergence, 500 g ai/ha, 0 to 100 scale (0 no effect, 100 complete control)

SMILES | Plant response rating, Ducksalad (ducksalad) | Plant response rating, Corn (corn) | Corn plant response rating (0 to 100 scale, 0 is no effect, 100 is complete control) (corn) | Plant response rating, Galium (galium) | Galium plant response rating (0 to 100 scale, 0 is no effect, 100 is complete control) (galium) | Plant response rating, Kochia (kochia; [3]) | Plant response rating, Kochia (kochia; [4]) | Kochia plant response rating (0 to 100 scale, 0 is no effect, 100 is complete control) (kochia; Postemergence, 500 g ai/ha) | Plant response rating, Kochia (kochia; [5]) | Plant response rating, Blackgrass (blackgrass) | Blackgrass plant response rating (0 to 100 scale, 0 is no effect, 100 is complete control) (blackgrass) | Plant response rating, Barnyardgrass (barnyardgrass [1]) | Plant response rating, Barnyardgrass (barnyardgrass [2]; [6]) | Plant response rating, Barnyardgrass (barnyardgrass [2]; [7]) | Barnyardgrass plant response rating (0 to 100 scale, 0 is no effect, 100 is complete control) (barnyardgrass [2]; Postemergence, 500 g ai/ha) | Plant response rating, Barnyardgrass (barnyardgrass [2]; [8]) | Plant response rating, Rice (rice) | Plant response rating, Pigweed (pigweed; [3]) | Plant response rating, Pigweed (pigweed; [4]) | Pigweed plant response rating (0 to 100 scale, 0 is no effect, 100 is complete control) (pigweed; Postemergence, 500 g ai/ha) | further results
O=C1NCC(c2cccc(C3CC3)c2)C1C(=O)Nc1ccccc1F (racemic) [Compound 166] | 100 | 30 | 80 | 20 | 60 | 30 | 30 | 70 | 70 | 50 | 60 | 75 | 80 | 80 | 80 | 90 | 0 | 0 | 40 | 50 | Plant response rating, Pigweed (pigweed; [5]): 10; Plant response rating, Wheat (wheat): 20; Wheat plant response rating (0 to 100 scale, 0 is no effect, 100 is complete control) (wheat): 50; Plant response rating, Foxtail, Giant (giant foxtail; [3]): 90; Plant response rating, Foxtail, Giant (giant foxtail; [4]): 80; Foxtail, Giant plant response rating (0 to 100 scale, 0 is no effect, 100 is complete control) (giant foxtail; Postemergence, 500 g ai/ha): 90; Plant response rating, Foxtail, Giant (giant foxtail; preemergence, 500 g ai/ha): 90; Plant response rating, Sedge, Umbrella (sedge, umbrella): 0; Plant response rating, Ryegrass, Italian (ryegrass, Italian; [3]): 20; Plant response rating, Ryegrass, Italian (ryegrass, Italian; [4]): 0; Ryegrass, Italian plant response rating (0 to 100 scale, 0 is no effect, 100 is complete control) (ryegrass, Italian; Postemergence, 500 g ai/ha): 50; Plant response rating, Ryegrass, Italian (ryegrass, Italian; [5]): 60; Plant response rating, Ragweed (ragweed; [3]): 0; Plant response rating, Ragweed (ragweed; [4]): 0; Ragweed plant response rating (0 to 100 scale, 0 is no effect, 100 is complete control) (ragweed; Postemergence, 500 g ai/ha): 0; Plant response rating, Ragweed (ragweed; [5]): 50
O=C1NCC(c2cccc(C3CC3)c2)C1C(=O)Nc1cccc(F)c1F (racemic) [Compound 167] | 100 | 0 | 70 | 50 | 60 | 20 | 30 | 50 | 60 | 50 | 60 | 75 | 90 | 90 | 90 | 90 | 10 | 50 | 0 | 0 | Plant response rating, Pigweed (pigweed; [5]): 50; Plant response rating, Wheat (wheat): 0; Wheat plant response rating (0 to 100 scale, 0 is no effect, 100 is complete control) (wheat): 50; Plant response rating, Foxtail, Giant (giant foxtail; [3]): 90; Plant response rating, Foxtail, Giant (giant foxtail; [4]): 90; Foxtail, Giant plant response rating (0 to 100 scale, 0 is no effect, 100 is complete control) (giant foxtail; Postemergence, 500 g ai/ha): 90; Plant response rating, Foxtail, Giant (giant foxtail; preemergence, 500 g ai/ha): 90; Plant response rating, Sedge, Umbrella (sedge, umbrella): 0; Plant response rating, Ryegrass, Italian (ryegrass, Italian; [3]): 20; Plant response rating, Ryegrass, Italian (ryegrass, Italian; [4]): 20; Ryegrass, Italian plant response rating (0 to 100 scale, 0 is no effect, 100 is complete control) (ryegrass, Italian; Postemergence, 500 g ai/ha): 40; Plant response rating, Ryegrass, Italian (ryegrass, Italian; [5]): 70; Plant response rating, Ragweed (ragweed; [3]): 0; Plant response rating, Ragweed (ragweed; [4]): 20; Ragweed plant response rating (0 to 100 scale, 0 is no effect, 100 is complete control) (ragweed; Postemergence, 500 g ai/ha): 50; Plant response rating, Ragweed (ragweed; [5]): 50
O=C1NCC(c2cccc(C3CC3)c2)C1C(=O)Nc1ccc(F)c(F)c1F (racemic) [Compound 168] | 100 | 30 | 70 | 60 | 70 | 40 | 40 | 60 | 60 | 40 | 60 | 65 | 90 | 90 | 90 | 90 | 0 | 40 | 0 | 40 | Plant response rating, Pigweed (pigweed; [5]): 50; Plant response rating, Wheat (wheat): 0; Wheat plant response rating (0 to 100 scale, 0 is no effect, 100 is complete control) (wheat): 40; Plant response rating, Foxtail, Giant (giant foxtail; [3]): 90; Plant response rating, Foxtail, Giant (giant foxtail; [4]): 90; Foxtail, Giant plant response rating (0 to 100 scale, 0 is no effect, 100 is complete control) (giant foxtail; Postemergence, 500 g ai/ha): 90; Plant response rating, Foxtail, Giant (giant foxtail; preemergence, 500 g ai/ha): 90; Plant response rating, Sedge, Umbrella (sedge, umbrella): 0; Plant response rating, Ryegrass, Italian (ryegrass, Italian; [3]): 0; Plant response rating, Ryegrass, Italian (ryegrass, Italian; [4]): 20; Ryegrass, Italian plant response rating (0 to 100 scale, 0 is no effect, 100 is complete control) (ryegrass, Italian; Postemergence, 500 g ai/ha): 50; Plant response rating, Ryegrass, Italian (ryegrass, Italian; [5]): 40; Plant response rating, Ragweed (ragweed; [3]): 0; Plant response rating, Ragweed (ragweed; [4]): 0; Ragweed plant response rating (0 to 100 scale, 0 is no effect, 100 is complete control) (ragweed; Postemergence, 500 g ai/ha): 20; Plant response rating, Ragweed (ragweed; [5]): 50
